Measured values reported in patent US11401278B2, “Macrocyclic indole derivatives” (The Broad Institute, Inc., priority 2017, dated 2022).
Structures can show the parent of a compound that is named as a salt.

Target: MCL-1 (Homo sapiens (Human), UniProt Q07820, K194A/K197A/R201A)
Assay: Protein-protein interaction assay MCL-1/Noxa BH3 peptide (MCL-1 assay, TR-FRET)
Assay type: binding
Settings: MBP-MCL-1 / Noxa BH3 peptide, median
How it was run: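 TR-FRET competition assay read at 665/620 nm, with a Noxa BH3 tracer peptide (1 nM) plus Eu-cryptate anti-MBP and XL665-streptavidin. Compounds (0.1 nM-20 μM, duplicates) were pre-equilibrated 10 min at 22° C with 1 nM MBP-MCL-1 (173-329) in Tris pH 7, NaCl, KF, DTT buffer, then incubated 1 h at 22° C and overnight at 4° C. IC50 came from 4-parameter regression.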

MCL-1, sequence (Q07820 whole entry K194A/K197A/R201A, looked up): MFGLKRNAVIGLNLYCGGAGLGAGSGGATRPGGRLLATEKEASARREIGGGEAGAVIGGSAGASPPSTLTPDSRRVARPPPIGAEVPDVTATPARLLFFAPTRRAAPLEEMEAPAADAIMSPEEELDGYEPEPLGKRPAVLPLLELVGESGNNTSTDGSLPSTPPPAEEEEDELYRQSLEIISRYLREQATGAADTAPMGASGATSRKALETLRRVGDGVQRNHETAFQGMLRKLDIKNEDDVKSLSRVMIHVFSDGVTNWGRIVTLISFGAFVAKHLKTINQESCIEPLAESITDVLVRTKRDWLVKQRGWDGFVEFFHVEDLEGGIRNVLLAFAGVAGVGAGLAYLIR

IC50 [nM]	SMILES
0.96	Cc1c2c(nn1C)CNS(=O)(=O)CCCn1c(C(=O)O)c(CCCOc3cccc4cc(F)ccc34)c3ccc(Cl)c-2c31 (single isomer, unassigned; enantiomer 1) [Example 51, 4-chloro-7-{3-[(6-fluoronaphthalen-1-yl)oxy]propyl}-2,3-dimethyl-13,13-dioxo-10,11,12,13,14,15-hexahydro-2H-13lambda^6-pyrazolo[3′,4′:4,5][1,2,8]thiadiazacycloundecino[6,7,8-hi]indole-8-carboxylic acid (Enantiomer 1)]
0.64	CCc1c2c(nn1C)CN(C1CC1)S(=O)(=O)CCCn1c(C(=O)O)c(CCCOc3cccc4cc(F)ccc34)c3ccc(Cl)c-2c31 (single isomer, unassigned; enantiomer 1) [Example 54, (−)-4-chloro-14-cyclopropyl-3-ethyl-7-{3-[(6-fluoronaphthalen-1-yl)oxy]propyl}-2-methyl-13,13-dioxo-10,11,12,13,14,15-hexahydro-2H-13lambda^6-pyrazolo[3′,4′:4,5][1,2,8]thiadiazacycloundecino[6,7,8-hi]indole-8-carboxylic acid N-ethylethanamine Salt (Enantiomer 1)]
0.48	CCc1c2c(nn1C)CN(CC)S(=O)(=O)CCCn1c(C(=O)O)c(CCCOc3cccc4cc(F)ccc34)c3ccc(Cl)c-2c31 (single isomer, unassigned; enantiomer 1) [Example 57, (+)-4-chloro-3,14-diethyl-7-{3-[(6-fluoronaphthalen-1-yl)oxy]propyl}-2-methyl-13,13-dioxo-10,11,12,13,14,15-hexahydro-2H-13lambda^6-pyrazolo[3′,4′:4,5][1,2,8]thiadiazacycloundecino[6,7,8-hi]indole-8-carboxylic acid N-ethylethanamine Salt (Enantiomer 1)]
22	Cc1c2c(nn1C)C(CCN1CCOCC1)N(C)S(=O)(=O)CCCn1c(C(=O)O)c(CCCOc3cccc4cc(F)ccc34)c3ccc(Cl)c-2c31 (single isomer, unassigned; enantiomer 1) [Example 66, 4-chloro-7-{3-[(6-fluoronaphthalen-1-yl)oxy]propyl}-2,3,14-trimethyl-15-[2-(morpholin-4-yl)ethyl]-13,13-dioxo-10,11,12,13,14,15-hexahydro-2H-13lambda^6-pyrazolo[3′,4′:4,5][1,2,8]thiadiazacycloundecino[6,7,8-hi]indole-8-carboxylic acid (Enantiomer 1)]
11	Cc1c2c(nn1C)CN(C)S(=O)(=O)CCCn1c(C(=O)O)c(CCCOc3cccc4ccccc34)c3ccc(Cl)c-2c31 (single isomer, unassigned; enantiomer 2) [Example 6, 4-Chloro-2,3,14-trimethyl-7-{3-[(naphthalen-1-yl)oxy]propyl}-13,13-dioxo-10,11,12,13,14,15-hexahydro-2H-13λ^6-pyrazolo[3′,4′:4,5][1,2,8]thiadiazacycloundecino[6,7,8-hi]indole-8-carboxylic acid-N-ethylethanamine salt (Enantiomer 2)]
11	CCc1c2c(nn1C)CN(C)S(=O)(=O)CCCn1c(C(=O)O)c(CCCOc3cccc4cc(F)ccc34)c3ccc(Cl)c-2c31 (single isomer, unassigned; enantiomer 2) [Example 37, (−)-4-chloro-3-ethyl-7-{3-[(6-fluoronaphthalen-1-yl)oxy]propyl}-2,14-dimethyl-13,13-dioxo-10,11,12,13,14,15-hexahydro-2H-13lambda^6-pyrazolo[3′,4′:4,5][1,2,8]thiadiazacycloundecino-[6,7,8-hi]indole-8-carboxylic acid (Enantiomer 2)]
0.31	Cc1c2c(nn1C)C(CCN1CCOCC1)N(C)S(=O)(=O)CCCn1c(C(=O)O)c(CCCOc3cccc4ccccc34)c3cccc-2c31 (single isomer, unassigned; enantiomer 2) [Example 46, 2,3,14-trimethyl-15-[2-(morpholin-4-yl)ethyl]-7-{3-[(naphthalen-1-yl)oxy]propyl}-13,13-dioxo-10,11,12,13,14,15-hexahydro-2H-13lambda^6-pyrazolo[3′,4′:4,5][1,2,8]thiadiazacycloundecino[6,7,8-hi]indole-8-carboxylic acid N-ethylethanamine Salt (Enantiomer 2)]
110	CCc1c2c(nn1C)C(CCC1CCOCC1)N(C)S(=O)(=O)CCCn1c(C(=O)O)c(CCCOc3cccc4cc(F)ccc34)c3ccc(Cl)c-2c31 (single isomer, unassigned; enantiomer 2) [Example 62, (−)-4-chloro-3-ethyl-7-{3-[(6-fluoronaphthalen-1-yl)oxy]propyl}-2,14-dimethyl-15-[2-(oxan-4-yl)ethyl]-13,13-dioxo-10,11,12,13,14,15-hexahydro-2H-13lambda^6-pyrazolo[3′,4′:4,5][1,2,8]thiadiazacycloundecino[6,7,8-hi]indole-8-carboxylic acid (Enantiomer 2)]
0.4	Cc1c2c(nn1C)C(CCN1CCOCC1)N(C)S(=O)(=O)CCCn1c(C(=O)O)c(CCCOc3cccc4cc(F)ccc34)c3ccc(Cl)c-2c31 (single isomer, unassigned; enantiomer 2) [Example 67, 4-chloro-7-{3-[(6-fluoronaphthalen-1-yl)oxy]propyl}-2,3,14-trimethyl-15-[2-(morpholin-4-yl)ethyl]-13,13-dioxo-10,11,12,13,14,15-hexahydro-2H-13lambda^6-pyrazolo[3′,4′:4,5][1,2,8]thiadiazacycloundecino[6,7,8-hi]indole-8-carboxylic acid (Enantiomer 2)]

More lines, now with the values behind:

SMILES	IC50 [nM]
CCc1c2c(nn1C)C(CCC1CCOCC1)N(C)S(=O)(=O)CCCn1c(C(=O)O)c(CCCOc3cccc4cc(F)ccc34)c3ccc(Cl)c-2c31 (single isomer, unassigned; enantiomer 1) [Example 61, (+)-4-chloro-3-ethyl-7-{3-[(6-fluoronaphthalen-1-yl)oxy]propyl}-2,14-dimethyl-15-[2-(oxan-4-yl)ethyl]-13,13-dioxo-10,11,12,13,14,15-hexahydro-2H-13lambda^6-pyrazolo[3′,4′:4,5][1,2,8]thiadiazacycloundecino[6,7,8-hi]indole-8-carboxylic acid (Enantiomer 1)]	0.94
Cc1c2c(nn1C)CN(CCN1CCOCC1)S(=O)(=O)CCCn1c(C(=O)O)c(CCCOc3cccc4ccccc34)c3cccc-2c31 (single isomer, unassigned; enantiomer 2) [Example 3, 2,3-Dimethyl-14-[2-(morpholin-4-yl)ethyl]-7-{3-[(naphthalen-1-yl)oxy]propyl}-13,13-dioxo-10,11,12,13,14,15-hexahydro-2H-13λ^6-pyrazolo[3′,4′:4,5][1,2,8]thiadiazacycloundecino-[6,7,8-hi]indole-8-carboxylic acid-N-ethylethanamine salt (Enantiomer 2)]	270
CCc1c2c(nn1C)CN(C)S(=O)(=O)CCCn1c(C(=O)O)c(CCCOc3cccc4cc(F)ccc34)c3ccc(F)c-2c31 (single isomer, unassigned; enantiomer 2) [Example 9, (−)-3-Ethyl-4-fluoro-7-{3-[(6-fluoronaphthalen-1-yl)oxy]propyl}-2,14-dimethyl-13,13-dioxo-10,11,12,13,14,15-hexahydro-2H-13λ^6-pyrazolo[3′,4′:4,5][1,2,8]thiadiazacycloundecino-[6,7,8-hi]indole-8-carboxylic acid (Enantiomer 2)]	34
Cc1c2c(nn1C)CN(C)S(=O)(=O)CCCn1c(C(=O)O)c(CCCOc3cccc4cc(F)ccc34)c3ccc(F)c-2c31 (single isomer, unassigned; enantiomer 2) [Example 39, (+)-4-fluoro-7-{3-[(6-fluoronaphthalen-1-yl)oxy]propyl}-2,3,14-trimethyl-13,13-dioxo-10,11,12,13,14,15-hexahydro-2H-13lambda^6-pyrazolo[3′,4′:4,5][1,2,8]thiadiazacycloundecino-[6,7,8-hi]indole-8-carboxylic acid (Enantiomer 2)]	0.89
Cc1c2c(nn1C)CN(C1CC1)S(=O)(=O)CCCn1c(C(=O)O)c(CCCOc3cccc4cc(F)ccc34)c3ccc(Cl)c-2c31 (single isomer, unassigned; enantiomer 2) [Example 43, (+)-4-chloro-14-cyclopropyl-7-{3-[(6-fluoro-1-naphthyl)oxy]propyl}-2,3-dimethyl-11,12,14,15-tetrahydro-2H,10H-pyrazolo[3′,4′:4,5][1,2,8]thiadiazacycloundecino[6,7,8-hi]indole-8-carboxylic acid 13,13-dioxide N-diethylamine salt (Enantiomer 2)]	6.2
Cc1c2c(nn1C)CNS(=O)(=O)CCCn1c(C(=O)O)c(CCCOc3cccc4cc(F)ccc34)c3ccc(Cl)c-2c31 (single isomer, unassigned; enantiomer 2) [Example 52, 4-chloro-7-{3-[(6-fluoronaphthalen-1-yl)oxy]propyl}-2,3-dimethyl-13,13-dioxo-10,11,12,13,14,15-hexahydro-2H-13lambda^6-pyrazolo[3′,4′:4,5][1,2,8]thiadiazacycloundecino[6,7,8-hi]indole-8-carboxylic acid (Enantiomer 2)]	23
CCNCC.CCc1c2c(nn1C)C(CCN1CCOCC1)N(C)S(=O)(=O)CCCn1c(C(=O)O)c(CCCOc3cccc4cc(F)ccc34)c3ccc(Cl)c-2c31 (single isomer, unassigned; enantiomer 2) [Example 76, 4-chloro-3-ethyl-7-{3-[(6-fluoronaphthalen-1-yl)oxy]propyl}-2,14-dimethyl-15-[2-(morpholin-4-yl)ethyl]-13,13-dioxo-10,11,12,13,14,15-hexahydro-2H-13lambda^6-pyrazolo[3′,4′:4,5][1,2,8]thiadiazacycloundecino[6,7,8-hi]indole-8-carboxylic acid-N-ethylethanamine Salt (Enantiomer 2)]	0.59
